Columns and labels:
[1] = tested on: amyloid beta 1-42 (Abeta 1-42)-induced model of Alzheimer's disease in frontal cortex cultures of mouse neurons; experiment: Rescue of amyloid beta 1-42-induced functional effects on neuronal networks, phenotypic MEA screening (Example 8); assay type: cell-based
[2] = tested on: MPP^+-treated mouse ventral midbrain/cortex co-cultures; experiment: Prevention/rescue efficacy on MPP+-induced neuronal networks, phenotypic MEA screening (Example 7); assay type: cell-based
Protocol: The prevention/rescue efficacy of nanoparticles of the invention was tested on MPP^+-treated mouse ventral midbrain/cortex co-cultures, cultured on a 48-wells MEA for 3 weeks. This model represents an in vitro Parkinson's model for screening compounds, based on the functional rescue of dopaminergic neurons using challenged midbrain/cortex cultures growing on MEAs. Midbrain is a region of the brain including the substantia nigra which is part of the basal ganglia and which contains most of the dopaminergic neurons. The evaluation of the nanoparticles' prevention/rescue effect was performed via the measurement of the extracellular electrical activity of the co-culture of neurons plated on Microelectrode Array (MEA) chips. […]
Midbrain and frontal cortex tissue was harvested from embryonic day 14.5 chr:NMRI mice (Charles River). […] Tissue was dissociated by enzymatic digestion (133.3 Kunitz units/ml DNase; 10 Units/ml Papain) and mechanical trituration, counted, vitality controlled, and plated in a 20 μl drop of DMEM containing laminin (10 μg/ml), 10% fetal bovine serum and 10% horse serum on MEAs. Cultures on MEAs were incubated at 37° C. in a 10% CO2 atmosphere until ready for use. […]
At day 21, 120 minutes of neuronal activity were recorded, and 30 minutes of stable activity were analyzed (FIG. 6). […]
Each unit represents the activity originating from one neuron recorded at one electrode. […]

| Molecule | Effect Score ([1]; Abeta 1-42 100 nM at T0, nanoparticles (800 μM; [BaTiO3]=2000 μM) or donepezil 300 nM at T0+4 h, Control=0, Abeta group=1, 15 of 204 parameters) | Rescue efficacy ([1]; same treatment as Effect Score, Control set at 100%, Abeta group 0%) [%] | Effect Score ([2]; nanoparticles ([Au] or [Si]=800 μM; [BaTiO3]=2000 μM) or GDNF 20 ng/ml at day 7, MPP+ 20 μM at day 8, recording at day 21, Control=0, MPP+ group=1, 18 of 204 parameters) | Prevention/rescue efficacy ([2]; same treatment as Effect Score, Control set at 100%, MPP+ group 0%) [%] |
| --- | --- | --- | --- | --- |
| COc1cc2c(cc1OC)C(=O)C(CC1CCN(Cc3ccccc3)CC1)C2 (stereo not shown) [Donepezil, donepezil] | 0.46 | 54 |  |  |
| GDNF: glial cell-derived neurotrophic factor, neuroprotector used as reference (protein, UniProt P39905 78-211, looked up) Glial cell line-derived …: SPDKQMAVLPRRERNRQAAAANPENSRGKGRRGQRGKNRGCVLTAIHLNVTDLGLGYETKEELIFRYCSGSCDAAETTYDKILKNLSRNRRLVSDKVGQACCRPIAFDDDLSFLDDNLVYHILRKHSAKRCGCI |  |  | 0.44 | 56 |
